# Results: patent US20260265199A1, “CRYSTALLINE FORMS OF (R)-2-AMINO-5-(4-(2-(3,5-DIFLUOROPHENYL)-2-HYDROXYACETAMIDO)-2-METHYLPHENYL)-N-ISOPROPYLNICOTINAMIDE AND METHODS FOR USING THE SAME” (HIBERCELL, INC., priority 2023, published 2026)
# Where a name gives a salt, the structure may show the parent alone.
# Assay: Dynamic vapor sorption (DVS Intrinsic, 25° C., 0-90% RH)
# Format: physicochemical
# Experimental: Moisture sorption/desorption data were collected on a DVS Intrinsic (SMS, UK). The sample was placed into a tared sample chamber and automatically weighed. The sample was dried at 40° C. until the dm/dt was less than 0.002% and cooled to 25° C. Set the instrument parameters as below. • Step time (min): 60 min • Sample temperature: 25° C. • Cycle: Full cycle • Adsorption: 0, 10, 20, 30, 40, 50, 60, 70, 80, 90 • Desorption: 80, 70, 60, 50, 40, 30, 20, 10, 0 • Save Data Rate: 5 s • Total flow rate: 200 sccm • Post experiment total flow: 200 sccm
# The associated DVS isotherm plot of Form A of the hemi-fumarate salt is depicted in FIG. 10.
smiles,measurement,setting,value
"Cc1cc(NC(=O)[C@H](O)c2cc(F)cc(F)c2)ccc1-c1cnc(N)c(C(=O)NC(C)C)c1 [Form A of the hemi-fumarate salt, (R)-2-amino-5-(4-(2-(3,5-difluorophenyl)-2-hydroxyacetamido)-2-methylphenyl)-N-isopropylnicotinamide]",Crystal form after DVS analysis,,did not change
same,Hygroscopicity (DVS),25° C.,slightly hygroscopic
same,Water uptake (DVS),"at 80% RH, 25° C.",0.66%
